Values of other authors in patent US7402581B2, “Azetidine compounds” (Albireo AB, priority 2003, dated 2008).

Target: T1, Human Neurokinin-2 (NK2) Receptor (Homo sapiens, UniProt P21452)
T1 sequence (P21452 1-398): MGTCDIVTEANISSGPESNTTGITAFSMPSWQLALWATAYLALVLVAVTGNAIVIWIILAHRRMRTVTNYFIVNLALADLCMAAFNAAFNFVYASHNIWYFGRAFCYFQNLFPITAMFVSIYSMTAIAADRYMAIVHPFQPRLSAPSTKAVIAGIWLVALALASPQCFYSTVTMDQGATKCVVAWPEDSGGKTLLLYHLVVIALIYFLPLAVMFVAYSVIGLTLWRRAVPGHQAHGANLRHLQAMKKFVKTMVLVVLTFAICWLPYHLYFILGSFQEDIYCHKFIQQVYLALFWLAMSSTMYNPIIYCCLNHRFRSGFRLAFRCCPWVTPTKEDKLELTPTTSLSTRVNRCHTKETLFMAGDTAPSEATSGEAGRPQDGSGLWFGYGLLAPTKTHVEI
Settings: reported in Bioorganic & Medicinal Chemistry Letters 2003

Compound: CN(CC(CCN1CC(N2CCOCC2)C1)c1ccc(Cl)c(Cl)c1)C(=O)c1ccccc1 (stereo not shown) [N-[2-(3,4-dichlorophenyl)-4-(3-morpholin-4-ylazetidin-1-yl)butyl]-N-methylbenzamide]
- functional NK2 receptor antagonistic properties: functional NK2 receptor antagonistic properties
